{"source": "PubChem BioAssay AID1259407", "about": "(Chemical Carcinogenesis Research Information System (CCRIS), 2018)", "test_system": "CCRIS mutagenicity, Ames/micronucleus/aberration tests", "assay": "CCRIS mutagenicity studies", "conditions": "Test System: AMES SALMONELLA TYPHIMURIUM", "key": {"[1]": {"conditions": "Strain/Indicator: TA98, Metabolic Activation: NONE, Method: STANDARD PLATE"}, "[2]": {"conditions": "Strain/Indicator: TA100, Metabolic Activation: NONE, Method: STANDARD PLATE"}, "[3]": {"conditions": "Strain/Indicator: TA98, Metabolic Activation: HAMSTER, LIVER, S-9, AROCLOR 1254 (10%), Method: PREINCUBATION"}, "[4]": {"conditions": "Strain/Indicator: TA98, Metabolic Activation: NONE, Method: PREINCUBATION"}, "[5]": {"conditions": "Strain/Indicator: TA98, Metabolic Activation: RAT, LIVER, S-9, AROCLOR 1254 (10%), Method: PREINCUBATION"}, "[6]": {"conditions": "Strain/Indicator: TA100, Metabolic Activation: HAMSTER, LIVER, S-9, AROCLOR 1254 (10%), Method: PREINCUBATION"}, "[7]": {"conditions": "Strain/Indicator: TA100, Metabolic Activation: NONE, Method: PREINCUBATION"}, "[8]": {"conditions": "Strain/Indicator: TA100, Metabolic Activation: RAT, LIVER, S-9, AROCLOR 1254 (10%), Method: PREINCUBATION"}, "[9]": {"conditions": "Strain/Indicator: TA1535, Metabolic Activation: HAMSTER, LIVER, S-9, AROCLOR 1254 (10%), Method: PREINCUBATION"}, "[10]": {"conditions": "Strain/Indicator: TA1535, Metabolic Activation: NONE, Method: PREINCUBATION"}, "[11]": {"conditions": "Strain/Indicator: TA1535, Metabolic Activation: RAT, LIVER, S-9, AROCLOR 1254 (10%), Method: PREINCUBATION"}}, "note": "Active and inactive are the calls of the source. The rule behind the calls is not given here."}
{"smiles": "Oc1cccc2c1ccc1[nH]c3ccc4ccccc4c3c12", "values": [{"measurement": "mutagenic call", "setting": "[1]", "value": "active; positive"}, {"measurement": "mutagenic call", "setting": "Strain/Indicator: TA98, Metabolic Activation: RAT, LIVER, S-9, 3-METHYLCHOLANTHRENE, Method: STANDARD PLATE", "value": "active; positive"}, {"measurement": "mutagenic call", "setting": "[2]", "value": "active; positive"}, {"measurement": "mutagenic call", "setting": "Strain/Indicator: TA100, Metabolic Activation: RAT, LIVER, S-9, 3-METHYLCHOLANTHRENE, Method: STANDARD PLATE", "value": "active; positive"}, {"measurement": "mutagenic call", "setting": "Strain/Indicator: TM677, Metabolic Activation: NONE, Method: PREINCUBATION", "value": "inactive; negative"}, {"measurement": "mutagenic call", "setting": "Strain/Indicator: TM677, Metabolic Activation: RAT, LIVER, S-9, 3-METHYLCHOLANTHRENE (10%), Method: PREINCUBATION", "value": "active; positive"}, {"measurement": "mutagenic call", "setting": "Strain/Indicator: TM677, Metabolic Activation: RAT, LIVER, S-9, AROCLOR 1254 (10%), Method: PREINCUBATION", "value": "active; positive"}]}
{"smiles": "CCCNCCC", "values": [{"measurement": "mutagenic call", "setting": "[3]", "value": "inactive; negative"}, {"measurement": "mutagenic call", "setting": "[4]", "value": "inactive; negative"}, {"measurement": "mutagenic call", "setting": "[5]", "value": "inactive; negative"}, {"measurement": "mutagenic call", "setting": "[6]", "value": "inactive; negative"}, {"measurement": "mutagenic call", "setting": "[7]", "value": "inactive; negative"}, {"measurement": "mutagenic call", "setting": "[8]", "value": "inactive; negative"}, {"measurement": "mutagenic call", "setting": "[9]", "value": "inactive; negative"}, {"measurement": "mutagenic call", "setting": "[10]", "value": "inactive; negative"}, {"measurement": "mutagenic call", "setting": "[11]", "value": "inactive; negative"}, {"measurement": "mutagenic call", "setting": "Strain/Indicator: TA1537, Metabolic Activation: HAMSTER, LIVER, S-9, AROCLOR 1254 (10%), Method: PREINCUBATION", "value": "inactive; negative"}, {"measurement": "mutagenic call", "setting": "Strain/Indicator: TA1537, Metabolic Activation: NONE, Method: PREINCUBATION", "value": "inactive; negative"}, {"measurement": "mutagenic call", "setting": "Strain/Indicator: TA1537, Metabolic Activation: RAT, LIVER, S-9, AROCLOR 1254 (10%), Method: PREINCUBATION", "value": "inactive; negative"}]}
{"smiles": "Clc1cccc(Cl)n1", "values": [{"measurement": "mutagenic call", "setting": "Strain/Indicator: TA97, Metabolic Activation: NONE, Method: STANDARD PLATE", "value": "inactive; negative"}, {"measurement": "mutagenic call", "setting": "[1]", "value": "inactive; negative"}, {"measurement": "mutagenic call", "setting": "Strain/Indicator: TA98, Metabolic Activation: RAT, LIVER, S-9, AROCLOR 1254, Method: STANDARD PLATE", "value": "inactive; negative"}, {"measurement": "mutagenic call", "setting": "[2]", "value": "inactive; negative"}, {"measurement": "mutagenic call", "setting": "Strain/Indicator: TA100, Metabolic Activation: RAT, LIVER, S-9, AROCLOR 1254, Method: STANDARD PLATE", "value": "inactive; negative"}, {"measurement": "mutagenic call", "setting": "Strain/Indicator: TA102, Metabolic Activation: NONE, Method: STANDARD PLATE", "value": "inactive; negative"}, {"measurement": "mutagenic call", "setting": "Strain/Indicator: TA102, Metabolic Activation: RAT, LIVER, S-9, AROCLOR 1254, Method: STANDARD PLATE", "value": "inactive; negative"}]}
{"smiles": "Cc1cccc(C#N)c1", "values": [{"measurement": "mutagenic call", "setting": "Strain/Indicator: TA97, Metabolic Activation: HAMSTER, LIVER, S-9, AROCLOR 1254 (10%), Method: PREINCUBATION", "value": "inactive; negative"}, {"measurement": "mutagenic call", "setting": "Strain/Indicator: TA97, Metabolic Activation: HAMSTER, LIVER, S-9, AROCLOR 1254 (30%), Method: PREINCUBATION", "value": "inactive; negative"}, {"measurement": "mutagenic call", "setting": "Strain/Indicator: TA97, Metabolic Activation: NONE, Method: PREINCUBATION", "value": "inactive; negative"}, {"measurement": "mutagenic call", "setting": "Strain/Indicator: TA97, Metabolic Activation: RAT, LIVER, S-9, AROCLOR 1254 (10%), Method: PREINCUBATION", "value": "inactive; negative"}, {"measurement": "mutagenic call", "setting": "Strain/Indicator: TA97, Metabolic Activation: RAT, LIVER, S-9, AROCLOR 1254 (30%), Method: PREINCUBATION", "value": "inactive; negative"}, {"measurement": "mutagenic call", "setting": "[3]", "value": "inactive; negative"}, {"measurement": "mutagenic call", "setting": "Strain/Indicator: TA98, Metabolic Activation: HAMSTER, LIVER, S-9, AROCLOR 1254 (30%), Method: PREINCUBATION", "value": "inactive; negative"}, {"measurement": "mutagenic call", "setting": "[4]", "value": "inactive; negative"}, {"measurement": "mutagenic call", "setting": "[5]", "value": "inactive; negative"}, {"measurement": "mutagenic call", "setting": "Strain/Indicator: TA98, Metabolic Activation: RAT, LIVER, S-9, AROCLOR 1254 (30%), Method: PREINCUBATION", "value": "inactive; negative"}, {"measurement": "mutagenic call", "setting": "[6]", "value": "inactive; negative"}, {"measurement": "mutagenic call", "setting": "Strain/Indicator: TA100, Metabolic Activation: HAMSTER, LIVER, S-9, AROCLOR 1254 (30%), Method: PREINCUBATION", "value": "inactive; negative"}, {"measurement": "mutagenic call", "setting": "[7]", "value": "inactive; negative"}, {"measurement": "mutagenic call", "setting": "[8]", "value": "inactive; negative"}, {"measurement": "mutagenic call", "setting": "Strain/Indicator: TA100, Metabolic Activation: RAT, LIVER, S-9, AROCLOR 1254 (30%), Method: PREINCUBATION", "value": "inactive; negative"}, {"measurement": "mutagenic call", "setting": "[9]", "value": "inactive; negative"}, {"measurement": "mutagenic call", "setting": "Strain/Indicator: TA1535, Metabolic Activation: HAMSTER, LIVER, S-9, AROCLOR 1254 (30%), Method: PREINCUBATION", "value": "inactive; negative"}, {"measurement": "mutagenic call", "setting": "[10]", "value": "inactive; negative"}, {"measurement": "mutagenic call", "setting": "[11]", "value": "inactive; negative"}, {"measurement": "mutagenic call", "setting": "Strain/Indicator: TA1535, Metabolic Activation: RAT, LIVER, S-9, AROCLOR 1254 (30%), Method: PREINCUBATION", "value": "inactive; negative"}]}
{"smiles": "[O-][n+]1cc2ncccc2cn1", "values": [{"measurement": "mutagenic call", "setting": "[4]", "value": "inactive; negative"}, {"measurement": "mutagenic call", "setting": "Strain/Indicator: TA98, Metabolic Activation: RAT, LIVER, S-9, PCB, Method: PREINCUBATION", "value": "inactive; negative"}, {"measurement": "mutagenic call", "setting": "[7]", "value": "inactive; negative"}, {"measurement": "mutagenic call", "setting": "Strain/Indicator: TA100, Metabolic Activation: RAT, LIVER, S-9, PCB, Method: PREINCUBATION", "value": "inactive; negative"}]}
{"smiles": "CCCOc1ccc(N)cc1N", "values": [{"measurement": "mutagenic call", "setting": "Strain/Indicator: TA97, Metabolic Activation: RAT, LIVER, S-9, AROCLOR 1254 (4%), Method: STANDARD PLATE", "value": "inactive; negative"}, {"measurement": "mutagenic call", "setting": "Strain/Indicator: TA97, Metabolic Activation: RAT, LIVER, S-9, AROCLOR 1254 (10%), Method: STANDARD PLATE", "value": "active; positive"}, {"measurement": "mutagenic call", "setting": "Strain/Indicator: TA1537, Metabolic Activation: RAT, LIVER, S-9, AROCLOR 1254 (4 OR 10%), Method: STANDARD PLATE", "value": "active; positive"}, {"measurement": "mutagenic call", "setting": "Strain/Indicator: TA1538, Metabolic Activation: RAT, LIVER, S-9, AROCLOR 1254 (4 OR 10%), Method: STANDARD PLATE", "value": "active; positive"}]}
{"smiles": "Cc1ccc2ccc3cc4ccccc4c4ccc1c2c34", "values": [{"measurement": "mutagenic call", "setting": "Strain/Indicator: TA100, Metabolic Activation: RAT, INTACT HEPATOCYTES, AROCLOR 1254, Method: PREINCUBATION", "value": "active; positive"}, {"measurement": "mutagenic call", "setting": "Strain/Indicator: TA100, Metabolic Activation: RAT, NADPH-FORTIFIED HOMOGENIZED HEPATOCYTES, AROCLOR 1254, Method: PREINCUBATION", "value": "active; positive"}]}
